Earlier results in patent publication US20090252711A1, “Stem Cells And Methods Of Making And Using Stem Cells” (priority 2006, published 2009).

Legend:
cultured ASCs = conditions: Cho et al. 2005
lung fibroblast cells = conditions: Mukhopadhyay et al. 2005
hTERT = conditions: normal human cells; Hou et al.
neural stem cells = conditions: Marin-Husstege et al. 2002

Row | Structure (SMILES) | differentiation towards the osteogenic (bone) lineage (cultured ASCs) | telomerase activity (lung fibroblast cells) | expression of the gene hTERT (hTERT) | differentiation of neural stem cells towards the astrocyte cell type (neural stem cells) | differentiation of neural stem cells towards the oligodendrocyte cell type (neural stem cells)
1 | CCCC(CCC)C(=O)O [Valproic acid] | enhanced differentiation | – | – | – | –
2 | CC(/C=C/C(=O)NO)=C\[C@@H](C)C(=O)c1ccc(N(C)C)cc1 [trichostatin A] | enhanced differentiation | induced | upregulation | not towards the astrocyte cell type | blocked
